Consider 30 compounds from ChEMBL document CHEMBL1131925, “Modulation of multidrug resistance in tumor cells by taxinine derivatives” (Bioorg Med Chem Lett, 1999).

Values after ≈ are worked out from the molar mass of the structure shown. A value given as a limit tells only on which side of the number the result lay.

Assay [1] in a line: Amount of vincristine (VCR) accumulation in multidrug-resistant human ovarian cancer 2780AD cells at a concentration of 10 ug/mL. Type of assay: functional, A2780 ADR.
Assay [2] can be described thus: Amount of vincristine (VCR) accumulation in multidrug-resistant human ovarian cancer 2780AD cells at a concentration of 1 ug/mL. Type of assay: functional, A2780 ADR.
Assay [3] in a line: Cytotoxicity against human epidermoid carcinoma KB cells. Type of assay: functional, cell-based.
The nature of assay [4]: Cytotoxicity against murine lymphoma L1210 cells. The conditions noted are these: Mus musculus. Type of assay: functional, cell-based.

In assay [1], `C=C1[C@@H](OC(=O)/C=C/c2ccccc2)CC[C@@]2(C)[C@@H](OC(=O)c3ccccc3)[C@H](OC(=O)c3ccccc3)C3=C(C)C(=O)C[C@@H]([C@@H](OC(C)=O)[C@H]12)C3(C)C` came in with a Vincristine accumulation of 210%. Moreover, the “Vincristine accumulation (% of control)” value in assay [2] worked out at 141%.

`C=C1[C@@H](OC(=O)/C=C/c2ccccc2)CC[C@@]2(C)[C@@H](O)[C@H](O)C3=C(C)C(=O)C[C@@H]([C@@H](OC(C)=O)[C@H]12)C3(C)C` displayed a Vincristine accumulation in assay [1] of 619%. Further, the “Vincristine accumulation (% of control)” value in assay [2] came to 274%.

With `C=C1[C@@H](OC(=O)c2ccccc2)CC[C@@]2(C)[C@@H](OC(C)=O)[C@H](OC(C)=O)C3=C(C)C(=O)C[C@@H]([C@@H](OC(=O)c4ccccc4)[C@H]12)C3(C)C`, the Vincristine accumulation in assay [1] amounted to 470%. Also, in assay [2], the “Vincristine accumulation (% of control)” value came out at 146%.

In turn, `C=C1[C@@H](OC(=O)/C=C/c2ccccc2)CC[C@@]2(C)[C@@H](OC(=O)/C=C/c3ccccc3)[C@H](OC(=O)/C=C/c3ccccc3)C3=C(C)C(=O)C[C@@H]([C@@H](OC(C)=O)[C@H]12)C3(C)C` had a Vincristine accumulation in assay [1] of 273%. Moreover, the “Vincristine accumulation (% of control)” value in assay [2] was 181%.

Compound `C=C1[C@@H](O)CC[C@@]2(C)[C@@H](OC(C)=O)[C@H](OC(C)=O)C3=C(C)C(=O)C[C@@H]([C@@H](OC(C)=O)[C@H]12)C3(C)C` [TAXININE A] displayed a Vincristine accumulation in assay [1] of 461%. The “Vincristine accumulation (% of control)” value in assay [2] is recorded as 153%.

As a reminder, the IC50 is the concentration that gives 50% inhibition. For `CC(=O)O[C@@H]1[C@@H]2CC(=O)C(C)=C([C@@H](OC(C)=O)[C@H](OC(C)=O)[C@]3(C)CC[C@H](OC(=O)/C=C/c4ccccc4)[C@@]4(CO4)[C@@H]13)C2(C)C`, the concentration for half-maximal inhibition (IC50) was over 10 mg/L in assay [3] and 3 mg/L (≈ 4.82 µM) in assay [4]. This compound also returned a Vincristine accumulation in assay [1] of 1027%. In addition, the “Vincristine accumulation (% of control)” value in assay [2] is on record as 358%.

Turning to `C=C1[C@@H](OC(=O)c2ccccc2)CC[C@@]2(C)[C@@H](OC(=O)c3ccccc3)[C@H](OC(=O)c3ccccc3)C3=C(C)C(=O)C[C@@H]([C@@H](OC(C)=O)[C@H]12)C3(C)C`, the Vincristine accumulation in assay [1] was 324%. The “Vincristine accumulation (% of control)” value in assay [2] stood at 132%.

As for `C=C1[C@@H](OC(=O)/C=C/c2ccccc2)CC[C@@]2(C)[C@@H](O)[C@H](O)C3=C(C)C(=O)C[C@@H]([C@@H](O)[C@H]12)C3(C)C`, the Vincristine accumulation in assay [1] stood at 518%. Further, the “Vincristine accumulation (% of control)” value in assay [2] is 225%.

On to `CC(=O)O[C@@H]1[C@@H]2CC(=O)C(C)=C([C@@H](OC(C)=O)[C@H](OC(C)=O)[C@]3(C)CC[C@H](OC(=O)c4ccccc4)[C@@]4(CO4)[C@@H]13)C2(C)C`, for which the Vincristine accumulation in assay [1] is 402%. For the same compound, the “Vincristine accumulation (% of control)” value in assay [2] is 140%.

As to `C=C1[C@@H](OC(=O)c2ccccc2)CC[C@@]2(C)[C@@H](OC(C)=O)[C@H](OC(C)=O)C3=C(C)[C@@H](O)C[C@@H]([C@@H](OC(C)=O)[C@H]12)C3(C)C`, in assay [1], the Vincristine accumulation is 649%. Moreover, in assay [2], the “Vincristine accumulation (% of control)” value was 151%.

Turning to `C=C1[C@@H](O)CC[C@@]2(C)[C@@H](OC(C)=O)[C@H](OC(C)=O)C3=C(C)C(=O)C[C@@H]([C@@H](O)[C@H]12)C3(C)C`, the Vincristine accumulation in assay [1] was determined as 271%. Also, in assay [2], the “Vincristine accumulation (% of control)” value was determined as 139%.

In turn, `C=C1[C@@H](OC(=O)c2ccccc2)CC[C@@]2(C)[C@@H](OC(C)=O)[C@H](OC(C)=O)C3=C(C)C(=O)C[C@@H]([C@@H](OC(C)=O)[C@H]12)C3(C)C` displayed a Vincristine accumulation in assay [1] of 645%. Besides, in assay [2], the “Vincristine accumulation (% of control)” value was 184%.

Regarding `C=C1[C@@H](OC(=O)c2ccccc2)CC[C@@]2(C)[C@@H](OC(C)=O)[C@H](OC(C)=O)C3=C(C)[C@H](OC(=O)c4ccccc4)C[C@@H]([C@@H](OC(C)=O)[C@H]12)C3(C)C`, the Vincristine accumulation in assay [1] turned out to be 391%. In assay [2], the “Vincristine accumulation (% of control)” value is recorded as 197%.

In assay [1], `CC(=O)O[C@@H]1[C@@H]2CC(=O)C(C)=C([C@@H](OC(C)=O)[C@H](OC(C)=O)[C@]3(C)CC[C@H](O)[C@]4(CO4)[C@@H]13)C2(C)C` returned a Vincristine accumulation of 238%. In assay [2], the “Vincristine accumulation (% of control)” value turned out to be 144%.

In the case of `C=C1[C@@H](O)CC[C@@]2(C)[C@@H](OC(C)=O)[C@H](OC(C)=O)C3=C(C)[C@@H](OC(=O)c4ccccc4)C[C@@H]([C@@H](OC(C)=O)[C@H]12)C3(C)C`, the Vincristine accumulation in assay [1] stood at 643%. For the same compound, the “Vincristine accumulation (% of control)” value in assay [2] was determined as 185%.

The compound `C=C1[C@@H](OC(=O)/C=C/c2ccccc2)CC[C@@]2(C)[C@@H](OC(C)=O)[C@H](OC(C)=O)C3=C(C)C(=O)C[C@@H]([C@@H](OC(C)=O)[C@H]12)C3(C)C` returned a Vincristine accumulation in assay [1] of 571%. For the same compound, the “Vincristine accumulation (% of control)” value in assay [2] was found to be 195%.

Turning to `C=C1[C@@H](O)CC[C@@]2(C)[C@@H](OC(C)=O)[C@H](OC(C)=O)C3=C(C)[C@@H](OC(=O)/C=C/c4ccccc4)C[C@@H]([C@@H](OC(C)=O)[C@H]12)C3(C)C`, the Vincristine accumulation in assay [1] stood at 699%. The “Vincristine accumulation (% of control)” value in assay [2] was determined as 249%.

Compound `C=C1[C@@H](O)CC[C@@]2(C)[C@@H](OC(C)=O)[C@H](OC(C)=O)C3=C(C)[C@H](O)C[C@@H]([C@@H](OC(C)=O)[C@H]12)C3(C)C` came in with a Vincristine accumulation in assay [1] of 290%. The “Vincristine accumulation (% of control)” value in assay [2] is reported as 149%.

Compound `CC[Si](CC)(CC)O[C@H]1CC[C@@]2(C)[C@@H](OC(C)=O)[C@H](OC(C)=O)C3=C(C)C(=O)C[C@@H]([C@@H](OC(C)=O)[C@@H]2[C@@]12CO2)C3(C)C` gave a Vincristine accumulation in assay [1] of 748%. In assay [2], the “Vincristine accumulation (% of control)” value amounted to 227%.

In assay [1], `C=C1[C@@H](O[Si](CC)(CC)CC)CC[C@@]2(C)[C@@H](OC(C)=O)[C@H](OC(C)=O)C3=C(C)C(=O)C[C@@H]([C@@H](OC(C)=O)[C@H]12)C3(C)C` returned a Vincristine accumulation of 669%. In assay [2], the “Vincristine accumulation (% of control)” value came to 213%.

With `C=C1[C@@H](OCOCc2ccccc2)CC[C@@]2(C)[C@@H](OC(C)=O)[C@H](OC(C)=O)C3=C(C)C(=O)C[C@@H]([C@@H](OC(C)=O)[C@H]12)C3(C)C`, the IC50 in assay [3] was found to be 9 mg/L (≈ 15.1 µM); in assay [4], 8 mg/L (≈ 13.4 µM). This compound yielded a Vincristine accumulation in assay [1] of 1110%. Besides, the “Vincristine accumulation (% of control)” value in assay [2] is listed as 401%.

Compound `CC(=O)O[C@@H]1[C@@H]2CC(=O)C(C)=C([C@@H](OC(C)=O)[C@H](OC(C)=O)[C@]3(C)CC[C@H](O)[C@@]4(CO4)[C@@H]13)C2(C)C` had a Vincristine accumulation in assay [1] of 364%. In assay [2], the “Vincristine accumulation (% of control)” value came out at 180%.

In the case of `COc1ccc(CCN(C)CCCC(C#N)(c2ccc(OC)c(OC)c2)C(C)C)cc1OC` (centres undefined) [VERAPAMIL], in assay [1], the Vincristine accumulation is reported as 739%. Moreover, the “Vincristine accumulation (% of control)” value in assay [2] is on record as 254%.

Compound `C=C1[C@@H](O)CC[C@@]2(C)[C@@H](OC(C)=O)[C@H](OC(C)=O)C3=C(C)[C@@H](O)C[C@@H]([C@@H](OC(C)=O)[C@H]12)C3(C)C` had a Vincristine accumulation in assay [1] of 422%. Also, the “Vincristine accumulation (% of control)” value in assay [2] is reported as 164%.

Consider `C=C1[C@@H](OC(=O)/C=C/c2ccccc2)CC[C@@]2(C)[C@@H](OC(C)=O)[C@H](OC(C)=O)C3=C(C)[C@H](OC(=O)/C=C/c4ccccc4)C[C@@H]([C@@H](OC(C)=O)[C@H]12)C3(C)C`, for which, in assay [1], the Vincristine accumulation was found to be 234%. Moreover, the “Vincristine accumulation (% of control)” value in assay [2] came out at 157%.

`C=C1[C@@H](O)CC[C@@]2(C)[C@@H](OC(C)=O)[C@H](OC(C)=O)C3=C(C)[C@H](OC(=O)/C=C/c4ccccc4)C[C@@H]([C@@H](OC(C)=O)[C@H]12)C3(C)C` displayed a Vincristine accumulation in assay [1] of 551%. The “Vincristine accumulation (% of control)” value in assay [2] stood at 213%.

Take `C=C1[C@@H](O)CC[C@@]2(C)[C@@H](OC(C)=O)[C@H](OC(C)=O)C3=C(C)C(=O)C[C@@H]([C@@H](OC(=O)/C=C/c4ccccc4)[C@H]12)C3(C)C`: the Vincristine accumulation in assay [1] is listed as 727%. For the same compound, the “Vincristine accumulation (% of control)” value in assay [2] came out at 207%.

With `C=C1[C@@H](OC(=O)/C=C/c2ccccc2)CC[C@@]2(C)[C@@H](OC(=O)/C=C/c3ccccc3)[C@H](OC(=O)/C=C/c3ccccc3)C3=C(C)C(=O)C[C@@H]([C@@H](OC(=O)/C=C/c4ccccc4)[C@H]12)C3(C)C`, in assay [1], the Vincristine accumulation stood at 230%. Besides, in assay [2], the “Vincristine accumulation (% of control)” value was determined as 186%.

`CC[Si](CC)(CC)O[C@H]1CC[C@@]2(C)[C@@H](OC(C)=O)[C@H](OC(C)=O)C3=C(C)C(=O)C[C@@H]([C@@H](OC(C)=O)[C@@H]2[C@]12CO2)C3(C)C` yielded a Vincristine accumulation in assay [1] of 752%. For the same compound, the “Vincristine accumulation (% of control)” value in assay [2] came to 233%.

`CC(=O)O[C@@H]1[C@@H]2CC(=O)C(C)=C([C@@H](OC(C)=O)[C@H](OC(C)=O)[C@]3(C)CC[C@H](OC(=O)c4ccccc4)[C@]4(CO4)[C@@H]13)C2(C)C` registered a Vincristine accumulation in assay [1] of 391%. The “Vincristine accumulation (% of control)” value in assay [2] is 200%.
